# According to ChEMBL document CHEMBL3886836, “Amides as pim inhibitors” (2016):
# What was measured:
# [1] = molecular target: T1, Serine/threonine-protein kinase pim-1 (Homo sapiens, UniProt P11309); test: The phosphorylation of biotinylated-BAD (S112) peptide by full length recombinant Pim-1, Pim-2, or Pim-3 protein was detected with streptavidin:Allophycocyanin (APC) conjugate and a europium (Eu) labeled antibody directed against phosphorylated-BAD (S112). […] The fluorescence is directly proportional to the amount of phosphorylated BAD peptide present in the reaction. […] The Reaction Buffer consisted of 45 mM Hepes, pH 7.0, 15 mM NaCl, and 1 mM MgCl. The quench/detection buffer consisted of 50 mM Tris, 100 mM NaCl, 0.05% BSA, 0.1% Tween and 3 mM EDTA. Biotinylated BAD peptide (Biopeptide), 10 mM ATP (Sigma), Labeled p-BAD (S112) mAb (Cell Signalling and Perkin Elmer) [with 0.05% BSA and 2 mM DTT added] streptavidin:Allophycocyanin [Perkin Elmer]. […] Initial incubations were carried out at RT (22° C.) for 30 min for both Pim-1 and for Pim-2. Pim enzyme is added to compound in buffer, and plates are incubated of 30 min. Biotinylated BAD and ATP are added and plates are incubated for 1 h. A mixture of labeled p-BAD (S112) mAb and quench/detection buffer are added and incubated for 2 h. Fluorescence was measured by an HTRF® Envision microplate reader.
# [2] = molecular target: T2, Serine/threonine-protein kinase pim-2 (Homo sapiens, UniProt Q9P1W9); test: Homogeneous Time Resolved Fluorescence Assay (HTRF): The assay for the determination of Pim activity is based on the formation of phosphorylated biotinylated-BAD peptide at the Serine 112 residue (S112) and employs HTRF® (homogeneous time resolved fluorescence) technology to detect the product in a 384-well plate format. The phosphorylation of biotinylated-BAD (S112) peptide by full length recombinant Pim-1, Pim-2, or Pim-3 protein was detected with streptavidin:Allophycocyanin (APC) conjugate and a europium (Eu) labeled antibody directed against phosphorylated-BAD (S112). Excitation of Eu by a high energy laser light (337 nm) leads to a transfer of energy to the APC molecule, and results in an emission at 665 nm. The fluorescence is directly proportional to the amount of phosphorylated BAD peptide present in the reaction. […] A reference compound was included on each assay plate [Costar 3658] in order to validate that plate; on one plate of every assay run, two additional reference compounds were included. The Reaction Buffer consisted of 45 mM Hepes, pH 7.0, 15 mM NaCl, and 1 mM MgCl. The quench/detection buffer consisted of 50 mM Tris, 100 mM NaCl, 0.05% BSA, 0.1% Tween and 3 mM EDTA. Biotinylated BAD peptide (Biopeptide), 10 mM ATP (Sigma), Labeled p-BAD (S112) mAb (Cell Signalling and Perkin Elmer) [with 0.05% BSA and 2 mM DTT added] streptavidin:Allophycocyanin [Perkin Elmer]. Final concentrations either Pim-1 enzyme [5 pM], or Pim-2 enzyme [0.5 pM], DMSO [1%], BLC BAD (S112) [0.5 μM], ATP [1.5 μM], streptavidin:Allophycocyanin [0.002 mg/mL] and biotinylated-BAD (S112) mAb [100 pM]. Initial incubations were carried out at RT (22° C.) for 30 min for both Pim-1 and for Pim-2. Pim enzyme is added to compound in buffer, and plates are incubated of 30 min. Biotinylated BAD and ATP are added and plates are incubated for 1 h. A mixture of labeled p-BAD (S112) mAb and quench/detection buffer are added and incubated for 2 h. Fluorescence was measured by an HTRF® Envision microplate reader.
# [3] = molecular target: T1, Serine/threonine-protein kinase pim-1; test: (§1) Homogeneous Time Resolved Fluorescence Assay (HTRF): The assay for the determination of Pim activity is based on the formation of phosphorylated biotinylated-BAD peptide at the Serine 112 residue (S112) and employs HTRF® (homogeneous time resolved fluorescence) technology to detect the product in a 96-well plate format. The phosphorylation of biotinylated-BAD (S112) peptide by full length recombinant Pim-1, Pim-2, or Pim-3 protein was detected with streptavidin:Allophycocyanin (APC) conjugate and a europium (Eu) labeled antibody directed against phosphorylated-BAD (S112). Excitation of Eu by a high energy laser light (337 nm) leads to a transfer of energy to the APC molecule, and results in an emission at 665 nm. The fluorescence is directly proportional to the amount of phosphorylated BAD peptide present in the reaction. […] A reference compound was included on each assay plate in order to validate that plate; on one plate of every assay run, two additional reference compounds were included. The final buffer conditions were as follows: 60 mM Hepes, pH 7.0, 0.05% BSA, 2 mM DTT. Incubations were carried out at RT (22° C.) for 2 h for Pim-1, 1 hour and 30 min for Pim-3, and 45 min for Pim-2. The reaction was stopped by the addition of 3 mM EDTA, and fluorescence was measured by an HTRF® Rubystar microplate reader.
# [4] = molecular target: T2, Serine/threonine-protein kinase pim-2; test: as §1
Structure (SMILES),IC50 [1] [nM],IC50 [2] [nM],IC50 [3] [nM],IC50 [4] [nM]
Cc1nc2cccc(-c3cc4c([nH]3)CCNC4=O)c2nc1N[C@H]1C[C@@H](N(C)C)C1,2,4,–,–
CC(C)(C)Nc1ccc2cccc(-c3cc4c([nH]3)CCNC4=O)c2n1,0.434,1.11,–,–
Cn1c(NC(C)(C)C)nc2c(-c3cc4c([nH]3)CNC4=O)cccc2c1=O,–,0.193,–,–
Cc1nc2cccc(-c3cc4c([nH]3)CCNC4=O)c2nc1-c1c(F)cccc1Cl,6.04,–,–,–
Cc1nc2cccc(-c3cc4c([nH]3)CCNC4=O)c2nc1N[C@H]1C[C@@H](N2CCOCC2)C1,6,–,–,–
Cc1nc2cccc(-c3cc4c([nH]3)CCNC4=O)c2nc1-c1cccnc1Cl,98.5,187,–,–
Cc1nc2cccc(-c3cc4c([nH]3)CCNC4=O)c2nc1NC(C)(C)CCS(C)(=O)=O,232,98.6,–,–
Cc1nc2cccc(-c3cc4c([nH]3)CCNC4=O)c2nc1N[C@H]1C[C@@H](NCC(F)F)C1,2,2,–,–
Cc1nc2cccc(-c3cc4c([nH]3)CCN/C4=N/O)c2nc1NC(C)(C)C,9,12,–,–
Nc1nc2cccc(-c3cc4c([nH]3)CCNC4=O)c2nc1Oc1ccccc1,2,1.8,–,–
Cc1nc2cccc(-c3cc4c([nH]3)CCNC4=O)c2nc1-c1ccc(N)cc1Cl,10.3,33.4,–,–
CC1(C)CCCN1c1cnc2cccc(-c3cc4c([nH]3)CCNC4=O)c2n1,0.3,0.8,–,–
Cc1nc2cccc(-c3cc4c([nH]3)CCNC4=O)c2nc1-c1cnccc1Cl,50.7,–,–,–
O=C1NCCc2[nH]c(-c3cccc4ccc(N[C@H]5CC[C@H](O)CC5)nc34)cc21,–,–,7,57.2
Cc1nc2cccc(-c3cc4c([nH]3)CCNC4=O)c2nc1NC(C)(C)C(N)=O,6.2,22.7,–,–
CC1(C)CCN1c1cnc2cccc(-c3cc4c([nH]3)CCNC4=O)c2n1,0.4,0.8,–,–
Cc1nc2cccc(-c3cc4c(n3C)C(CO)NC4=O)c2nc1NC(C)(C)C (racemic),10.3,7.8,–,–
Cc1nc2cccc(-c3cc4c([nH]3)C(CO)NC4=O)c2nc1NC(C)(C)C (racemic),2.32,2.16,–,–
Cc1nc2cccc(-c3cc4c([nH]3)CCNC4=O)c2nc1NC(C)C(C)C (racemic),1.2,1.8,–,–
